Data: patent US20220402862A1 (Intellia Therapeutics, Inc., priority 2019, published 2022)
“And” between values parts separate entries of the source, which are not always exact repeats. Equal entries are not always repeated.

Tests used:
Transthyretin (TTR) = experiment: Serum TTR ELISA in mice after LNP dosing; type: in vivo, CD-1 female mice
Outline: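 Serum mouse TTR was quantified by ELISA at 10,000-fold dilution for 0.1 mg/kg and 10,000/2,500-fold for 0.3 mg/kg. Samples came from female CD-1 mice (6–10 weeks) killed 6 or 7 days after a single intravenous LNP dose, usually 0.1 mg/kg.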

[1] = pKa measurement of unformulated amine lipid (fluorescence, method of Jayaraman et al.); type: physicochemical; conditions: 100 μM in 0.1 M phosphate buffer, pH 2.0-12.0
Method: The pKa of each amine lipid was determined according to the method in Jayaraman, et al. (Angewandte Chemie, 2012) with the following adaptations. […] Lipid was diluted to 100 μM in 0.1 M phosphate buffer (Boston Bioproducts) where the pH ranged from 2.0-12.0. Fluorescence intensity was measured using excitation and emission wavelengths of 321 nm and 448 nm.

[2] = Dynamic light scattering of LNPs: Z-average diameter, number average diameter, PDI; type: physicochemical; conditions: LNP
Outline: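 Values reported are the Z-average (intensity-weighted mean size), the number-average diameter and the PDI (spread of sizes, 0 = fully uniform). All three came from dynamic light scattering of LNP preparations after dilution in PBS.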

[3] = RNA encapsulation efficiency of LNPs (Ribogreen fluorescence assay); type: physicochemical; conditions: LNP; for Encapsulation (%): sg:mRNA 1:1, N/P about 6, amine lipid/DSPC/cholesterol/PEG-2k-DMG 50/9/38/3, Table 2, Experiments 2-20
Outline: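 Encapsulation efficiency is (Total RNA − Free RNA)/Total RNA. Free RNA was quantified by RiboGreen fluorescence (488/525 nm, ~10 min, RT, dark) in plain TE buffer; total RNA was quantified after LNP lysis with 0.2% Triton X-100, both against RNA standard curves.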

mouse TTR gene = experiment: In vivo editing in mouse liver, sgRNA targeting TTR (G282 or G502), % indel by NGS; design: species or system CD-1 female mice
Method: CD-1 female mice ranging from 6-10 weeks of age were used in each study. Animals were weighed and grouped according to body weight for preparing dosing solutions based on group average weight. LNPs were dosed via the lateral tail vein in a volume of 0.2 mL per animal (approximately 10 mL per kilogram body weight). The animals were periodically observed for adverse effects for at least 24 hours post dose. For studies measuring in vivo editing in liver, CD-1 female mice were dosed at 0.1 mg/kg unless otherwise noted. Animals were euthanized at 6 or 7 days by ex sanguination via cardiac puncture under isoflurane anesthesia. Liver tissue was collected from each animal for DNA extraction and analysis. Blood was collected into serum separator tubes or into tubes containing buffered sodium citrate for plasma as described herein. Cohorts of mice were measured for editing by Next-Generation Sequencing (NGS).
In brief, to quantitatively determine the efficiency of editing at the target location in the genome, genomic DNA was isolated and deep sequencing was utilized to identify the presence of insertions and deletions introduced by gene editing.
PCR primers were designed around the target site (e.g., within B2M), and the genomic area of interest was amplified. Additional PCR was performed according to the manufacturer's protocols (Illumina) to add the necessary chemistry for sequencing. The amplicons were sequenced on an Illumina MiSeq instrument. The reads were aligned to the mouse or rat reference genome (e.g., GRCm38) after eliminating those having low quality scores. The resulting files containing the reads were mapped to the reference genome (BAM files), where reads that overlapped the target region of interest were selected and the number of wild type reads versus the number of reads which contain an insertion, substitution, or deletion was calculated.
The editing percentage (e.g., the “indel efficiency” or “percent indels”) was defined as the total number of sequence reads with insertions or deletions over the total number of sequence reads, including wild type.
We assessed in vivo editing efficiency for materials delivered with formulations including various amine lipid compounds. Editing was measured using either G282 (SEQ ID No: 1) which targets the mouse TTR gene or G650 (SEQ ID No. 2) which targets the mouse B2M gene. Lipids described above were assessed for efficacy through in vivo editing experiments. LNPs were formulated at a 1:1 or 1:1.3 w/w ratio of sgRNA to Cas9 mRNA, and at an N/P ratio of about 6. Molar concentrations of lipids in the lipid component of the LNPs are used at mol % amine lipid/DSPC/cholesterol/PEG-2k-DMG of 50/9/38/3. The final LNPs were characterized to determine the encapsulation efficiency, polydispersity index, and average particle size according to the analytical methods provided above. Analysis of average particle size, polydispersity (PDI), total RNA content and encapsulation efficiency of RNA are shown in Table 2.
To assess whether the editing was dose responsive, experiments were performed in vivo at various LNP dose levels. Cas9 mRNA of Example 120 was formulated as LNPs with an sgRNA targeting TTR (G282, SEQ ID NO: 1; or G502, SEQ ID NO: 4).
We assessed in vivo delivery by measuring editing efficiency for materials delivered with formulations that included various amine lipid compounds. Cas9 mRNA (SEQ ID NO: 6) was formulated as LNPs with an sgRNA targetting the TTR mouse gene (SEQ ID NO: 4). LNPs were formulated at a 1:2 w/w ratio of sgRNA to Cas9 mRNA, and at an N/P ratio of about 6. Molar concentrations of lipids in the lipid component of the LNPs are used at mol % amine lipid/DSPC/cholesterol/PEG-2k-DMG of 50/9/38/3. The final LNPs compositions were characterized and analyzed as described in Example 120. Analysis of average particle size, polydispersity (PDI), total RNA content and encapsulation efficiency of RNA are shown in Table 6.

[4] = sg:mRNA 1:1, N/P 6.0, 50/9/38/3, Table 4, Experiments 101-104
[5] = sg:mRNA 1:1, N/P about 6, 50/9/38/3, Table 2, Experiments 2-20
[6] = mouse, LNP i.v. 0.03 mg/kg, guide G502, Experiment 105
[7] = mouse, LNP i.v. 0.03 mg/kg, guide G502, Experiment 105, relative to TSS control
[8] = mouse, LNP i.v. 0.1 mg/kg, guide G502, Experiment 105
[9] = mouse, LNP i.v. 0.1 mg/kg, guide G502, Experiment 105, relative to TSS control
[10] = sg:mRNA 1:2, N/P 6.0, 50/9/38/3, Table 4, Experiment 105
[11] = LNP i.v. 0.03 mg/kg, guide G502, Experiment 105
[12] = LNP i.v. 0.1 mg/kg, guide G502, Experiment 105
[13] = mouse serum TTR relative to TSS control, guide G282 experiments
[14] = mouse serum, guide G282 experiments, ELISA
[15] = sg:mRNA 1:2, N/P about 6, 50/9/38/3, Table 6, Experiments 106-107

| Compound | pKa [1] | Number mean (nm) [2, 5] | Z-avg (nm) [2, 5] | Encapsulation (%) [3] | Serum TTR (Transthyretin (TTR); [6]) [µg/mL] | Serum TTR % TSS (Transthyretin (TTR); [7]) [%] | Serum TTR (Transthyretin (TTR); [8]) [µg/mL] | Serum TTR % TSS (Transthyretin (TTR); [9]) [%] | PDI [2, 5] | Number mean (nm) [2, 10] [nm] | PDI [2, 10] | Z-avg (nm) [2, 10] [nm] | % E [3, 10] [%] | Editing Mean % Indel (mouse TTR gene; [11]) [%] | Editing Mean % Indel (mouse TTR gene; [12]) [%] | Serum TTR % TSS (Transthyretin (TTR); [13]) [%] | Serum TTR (Transthyretin (TTR); [14]) [µg/mL] | further results |
| --- | --- | --- | --- | --- | --- | --- | --- | --- | --- | --- | --- | --- | --- | --- | --- | --- | --- | --- |
| CCCCC/C=C\C/C=C\CCCCCCCC(=O)OCC(COC(=O)CCC(OCCCCCCCC)OCCCCCCCC)COC(=O)C1CCN(C)CC1 (stereo not drawn) [Compound 31, 3-((4,4-bis(octyloxy)butanoyl)oxy)-2-((((9Z,12Z)-octadeca-9,12-dienoyl)oxy)methyl)propyl 1-methylpiperidine-4-carboxylate] | 7.31 | 58.67 nm and 59.35 nm | 75.11 nm and 73.65 nm | 98% and 99% |  |  |  |  |  |  |  |  |  |  |  |  |  | Serum TTR (Transthyretin (TTR); mouse, LNP i.v. 0.1 mg/kg, guide G282, Experiments 101-103): 976 µg/mL; Serum TTR % TSS (Transthyretin (TTR); mouse, LNP i.v. 0.1 mg/kg, guide G282, Experiments 101-103, relative to TSS control): 71%; Serum TTR (Transthyretin (TTR); mouse, LNP i.v. 0.3 mg/kg, guide G282, Experiments 101-103): 226 µg/mL; Serum TTR % TSS (Transthyretin (TTR); mouse, LNP i.v. 0.3 mg/kg, guide G282, Experiments 101-103, relative to TSS control): 17%; Number mean (nm) [2, 4]: 61 nm; PDI [2, 4]: 0.04; Z-avg (nm) [2, 4]: 76 nm; % E [3, 4]: 99%; Editing Mean % Indel (mouse TTR gene; LNP i.v. 0.1 mg/kg, guide G282, Experiments 101-103): 13.5%; Editing Mean % Indel (mouse TTR gene; LNP i.v. 0.3 mg/kg, guide G282, Experiments 101-103): 50.7% |
| CCCCCCCCOC(CCC(=O)OCC(COC(=O)CCCCCCCCCCC(=O)OCCCCCCC)COC(=O)OCCCN(CC)CC)OCCCCCCCC (stereo not drawn) [Compound 61, 1-(3-((4,4-bis(octyloxy)butanoyl)oxy)-2-((((3-(diethylamino)propoxy)carbonyl)oxy)methyl)propyl) 12-heptyl dodecanedioate] | 6.29 | 72 nm | 87.26 nm | 97% | 711 | 65 | 472 | 43 | 0.018 | 79.73 | 0.033 | 99.25 | 98 | 7.78 | 36.06 |  |  |  |
| CCCCC/C=C\C/C=C\CCCCCCCC(=O)OCC(COC(=O)CCC(OCCCCCCCC)OCCCCCCCC)COC(=O)OCCC1CCCN1C (stereo not drawn) [Compound 24, 3-((4,4-bis(octyloxy)butanoyl)oxy)-2-((((2-(1-methylpyrrolidin-2-yl)ethoxy)carbonyl)oxy)methyl)propyl (9Z,12Z)-octadeca-9,12-dienoate] |  | 61.34 nm and 66.88 nm and 63.16 nm | 76.82 nm and 83.92 nm and 77.24 nm | 98% and 97% | 772 | 70 | 420 | 38 | 0.027 and 0.033 and 0.025 | 72.95 | 0.029 | 88.39 | 99 | 11.34 | 40.54 | 46 | 397 |  |
| CCCCC/C=C\C/C=C\CCCCCCCC(=O)OCC(COC(=O)CCC(OCCCCCCCC)OCCCCCCCC)COC(=O)NCCN1CCCCC1 (stereo not drawn) [Compound 101, 3-((4,4-bis(octyloxy)butanoyl)oxy)-2-((((2-(piperidin-1-yl)ethyl)carbamoyl)oxy)methyl)propyl (9Z,12Z)-octadeca-9,12-dienoate] | 6.4 |  |  |  |  |  |  |  |  |  |  |  |  |  |  |  |  | Serum TTR % TSS (Transthyretin (TTR); mouse serum TTR relative to TSS control, guide G502, i.v. 0.1 mg/kg): 56.1%; Serum TTR (Transthyretin (TTR); mouse serum, guide G502, i.v. 0.1 mg/kg): 655.8 µg/mL; Number mean (nm) [2, 15]: 58 nm; PDI [2, 15]: 0.04; Z-avg (nm) [2, 15]: 73 nm; % E ([3]; sg:mRNA 1:2, N/P about 6, 50/9/38/3, TTR sgRNA (SEQ ID NO: 4), Table 6, Experiments 106-107): 99%; Editing Mean % Indel (mouse TTR gene; guide G502, i.v. 0.1 mg/kg, sgRNA:Cas9 mRNA 1:2 w/w, experiments 106, 107): 25.9% |
| CCCCCCCCCCOC(=O)CCCCCCCC(=O)OCC(COC(=O)CCCC(=O)OC(CCCCCCCC)CCCCCCCC)COC(=O)OCCC1CCCN1C (stereo not drawn) [Compound 87, 1-decyl 9-(3-((5-(heptadecan-9-yloxy)-5-oxopentanoyl)oxy)-2-((((2-(1-methylpyrrolidin-2-yl)ethoxy)carbonyl)oxy)methyl)propyl) nonanedioate] | 6.52 | 81.57 nm | 98.47 nm | 98% |  |  |  |  | 0.006 |  |  |  |  |  |  | 68 | 511 |  |
